From US10662193B2, “Carbazole and carboline compounds for use in the diagnosis, treatment, alleviation or prevention of disorders associated with amyloid or amyloid-like proteins” (AC IMMUNE SA, priority 2014, dated 2020)

Tests used:
[1] = target: AD brain-enriched PHF (Homo sapiens, UniProt P10636); experiment: Assay 2 (filter trap): [3H]RefA radio-binding competition assay and Ki on PHF; conditions: [^3H]RefA 10 nM; for inhibition at 2.5 µM: compound 2.5 μM, no Ki determined; for Ki: PHF diluted 1/80, compound 0.12 nM to 50 μM
Experimental: Displacement of [^3H]RefA by Compounds of this Invention
50 g of frontal lobe tissue from post-mortem brain of an Alzheimer's disease (AD) patient were obtained from the London Tissue Bank. The patient was a […] and died […]. The brain sample was collected 5 hours post-mortem and characterized for Braak disease stage (Braak, H.; Braak, E. Acta Neuropathol., 1991, 82, 239-259) as stage VI. For the enrichment of PHF's, around 15 g of the AD human brain was thawed on ice and homogenized with 50 ml of homogenization buffer [0.75 M NaCl in RAB buffer (100 mM 2-(N-morpholino) ethanesulfonic acid (MES), 1 mM EGTA, 0.5 mM MgSO4, 2 mM DTT, pH 6.8) supplemented with protease inhibitors (Complete; Roche 11697498001) in a glass Dounce homogenizer. The homogenate was then incubated at 4° C. for 20 min to let any residual microtubules depolymerize, before the homogenate was transferred into polycarbonate centrifuge bottles (16×76 mm; Beckman 355603) and centrifuged at 11,000 g (12,700 RPM) in an ultracentrifuge (Beckman, XL100K) for 20 min at 4° C. using the pre-cooled 70.1 rotor (Beckman, 342184). Pellets were kept on ice. Supernatants were pooled into polycarbonate bottles and centrifuged again at 100,000 g (38,000 RPM) for 1 h at 4° C. in the 70.1 Ti rotor to isolate PHF-rich pellets, whereas soluble tau remained in the supernatants. The pellets from the first and second centrifugations were re-suspended in 120 mL of extraction buffer [10 mM Tris-HCl pH 7.4, 10% sucrose, 0.85 M NaCl, 1% protease inhibitor (Calbiochem 539131), 1 mM EGTA, 1% phosphatase inhibitor (Sigma P5726 and P0044)]. The solution was then transferred into polycarbonate centrifuge bottles (16×76 mm; Beckman 355603) and centrifuged at 15,000 g (14,800 RPM) in an ultracentrifuge (Beckman, XL100K) for 20 min at 4° C. using the 70.1 Ti rotor. In the presence of 10% sucrose and at low speed centrifugation, most PHF remained in the supernatant whereas intact or fragmented NFTs and larger PHF aggregates were pelleted. The pellets were discarded. 20% Sarkosyl (Sigma L7414-10ML) was added to the supernatants to a final concentration of 1% and stirred at room temperature for 1 h. This solution was then centrifuged into polycarbonate bottles at 100,000 g (38,000 RPM) for 1 h at 4° C. in the 70.1 Ti rotor, and the pellets containing PHF-rich material were re-suspended in a total final volume of 1.5 mL of PBS, aliquoted and stored at −80° C.
[^3H]RefA Radio-Binding Competition Assay
AD brain-enriched PHF diluted 1/80 were incubated in the presence of [^3H]RefA at 10 nM and the example compounds of this invention at 2.5 μM (250× excess), for 45 minutes at 37° C. Samples were then analyzed by on GF/B filter plates as described above (in the section “[^3H]RefA radio-binding assay and determination of the dissociation constant (Kd)). Non-specific signal was determined again with an excess of un-labeled RefA and specific binding calculated by subtracting the non-specific signal from the total signal. Competition was calculated as percent, where 0% was defined as the specific binding in the presence of vehicle (2.8% DMSO in PBS) and 100% as the values obtained in the presence of excess cold RefA. Similar assays were performed to determine the competition of the cold compounds on [^3H]RefA on in vitro aggregated recombinant human tau or Abeta1-42 For both recombinant proteins, 20 μg/mL of aggregates were incubated with 10 nM of [^3H]RefA for recombinant human tau or 80 nM of [^3H]RefA for recombinant human Abeta1-42.
Determination of the Binding Affinity (Ki)
Samples were then analyzed on GF/B filter plates as described above and Ki values calculated using Prism V5 (GraphPad).

[2] = system: tau tangles/Aβ plaques on AD brain sections; experiment: Assay 1: direct staining of human Alzheimer's disease brain sections (fluorescence); format: binding; parameters: key to Direct staining of tau tangles/Aβ plaques on AD brain sections at 100 μM / Direct staining of tau tangles on AD brain sections at 100 μM / Direct staining of Aβ plaques on AD brain sections at 100 μM / Direct staining of tau tangles on AD brain sections (footnote a: at 250 μM): − (No); +++ (strong); ++ (good); + (weak); conditions: for Direct staining of tau tangles on AD brain sections at 100 μM / Direct staining of tau tangles/Aβ plaques on AD brain sections at 100 μM: 100 μM compound; for Direct staining of tau tangles/Aβ plaques on AD brain sections at 100 μM: human AD brain sections, fluorescence, cell does not say tangles or plaques
Experimental: Assay 1 (Fluorescence Based Assay):
(§1) Direct Binding of Compounds of this Invention to Human Alzheimer's Disease Brain Sections and/or Displacement of RefA and Compound B
(§2) Frozen sections with a thickness of […] from the amygdala of donors diagnosed with Braak stage V-VI Alzheimer's Disease (Braak, H.; Braak, E. Acta Neuropathol., 1991, 82, 239-259), were purchased from a commercial provider (Tissue Solutions) and kept at −80° C. until use.
Direct Staining of Human Alzheimer's Disease Brain Sections
Brain sections were encircled with pap pen liquid blocker to reduce the volume of solution for the different incubations. Sections were fixed for 15 min at 4° C. with 4% paraformaldehyde and washed three times 5 minutes with PBS at room temperature. […] To reduce the auto-fluorescence of the tissue, the sections were incubated in a solution of 0.1% Sudan Black (Sigma 199664) in 70% ethanol for 15 min at room temperature in the dark, washed four times for 5 minutes with PBS, and mounted using ProLong Gold Antifade reagent (Invitrogen P36930). Sections were then analyzed on the Nikon Eclipse Ti microscope to detect staining and imaged using Nikon DS-Fi2 camera and NIS-Element AR4.13.1 software.

[3] = system: tau tangles on AD brain section; experiment: Assay 1: displacement of RefA on human AD brain sections (fluorescence); format: binding; conditions: for Selectivity (tau/Abeta): ratio of competition on tau tangles to competition on Aβ plaques
Experimental: as §1, §2
Displacement of RefA and Compound B
Brain sections were mainly treated as described above. Test compounds were, however, incubated on the section at 250 μM in 50% ethanol for 20 min at room temperature, and then directly incubated with the fluorescent reference compounds RefA and Compound B, each at 1 μM in 50% ethanol for 20 min at room temperature. RefA and Compound B stainings were visualized using the 470 nm and 365 nm excitation filters, respectively. Images were acquired, and tangles and plaques quantified using the NIS-Element software. Only those compounds not directly staining tangles or plaques at the same wavelengths as RefA and Compound B were tested in the displacement assay.
Structure of RefA (Tago et al., J. Label. Compd. Radiopharm. 2013, DOI: 10.1002/jlcr.3133)

[4] = system: Aβ plaques on AD brain section; experiment: Assay 1: displacement of Compound B on human AD brain sections (fluorescence); format: binding
Experimental: Direct Binding of Compounds of this Invention to Human Alzheimer's Disease Brain Sections and/or Displacement of RefA and Compound B Frozen sections with a thickness of […] from the amygdala of donors diagnosed with Braak stage V-VI Alzheimer's Disease (Braak, H.; Braak, E. Acta Neuropathol., 1991, 82, 239-259), were purchased from a commercial provider (Tissue Solutions) and kept at -80° C. until use. Displacement of RefA and Compound B Brain sections were mainly treated as described above. Test compounds were, however, incubated on the section at 250 μM in 50% ethanol for 20 min at room temperature, and then directly incubated with the fluorescent reference compounds RefA and Compound B, each at 1 μM in 50% ethanol for 20 min at room temperature. RefA and Compound B stainings were visualized using the 470 nm and 365 nm excitation filters, respectively. Images were acquired, and tangles and plaques quantified using the NIS-Element software. Only those compounds not directly staining tangles or plaques at the same wavelengths as RefA and Compound B were tested in the displacement assay. Structure of Compound B (prepared by a similar procedure described for […] in WO2010/011964): […]

Sequence of AD brain-enriched PHF (P10636 623-708 limits assumed): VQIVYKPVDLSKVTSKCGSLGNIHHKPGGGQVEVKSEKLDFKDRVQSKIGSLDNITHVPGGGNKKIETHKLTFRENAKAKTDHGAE

Row | Structure (SMILES) | inhibition at 2.5 µM [1] | Direct staining of tau tangles on AD brain sections at 100 μM ([2]; tangles) | Direct staining of tau tangles/Aβ plaques on AD brain sections at 100 μM [2] | Competition on AD brain section tau tangles (1 μM RefA vs. 250 μM compound) [3] | also measured
1 | Cn1c2c(c3ccc(Nc4ccc(F)c(F)c4)nc31)C(=O)N(CCCN)CC2 [212 Step F] | < 50% |  |  |  | 
2 | Cn1c2ccncc2c2ccc(Nc3ccc(F)c(C#N)c3)nc21 [Example 6] | < 50% | +++ (tangles) |  |  | 
3 | Cn1c2ccncc2c2ccc(Nc3cc(N4CCOCC4)ccc3F)nc21 [Example 10] | < 50% |  | − |  | 
4 | Cn1c2ccncc2c2ccc(Nc3ccc(OC(F)F)nc3)nc21 [Example 11] |  | ++ (tangles) |  |  | Ki [1]: 188 nM
5 | Cn1c2ccncc2c2ccc(Nc3cccc(OC(F)(F)F)c3)nc21 [Example 13] |  |  |  |  | Ki [1]: 169 nM
6 | Cn1c2ccncc2c2ccc(Nc3cccc(F)c3N3CCOCC3)nc21 [Example 14] |  |  |  |  | Ki [1]: 371 nM
7 | Cn1c2ccncc2c2ccc(Nc3c(F)cccc3N3CCOCC3)nc21 [Example 15] | < 50% |  |  |  | 
8 | Cn1c2ccncc2c2ccc(Nc3cc(F)ccc3N3CCOCC3)nc21 [Example 16] | < 50% |  | − |  | 
9 | Cn1c2ccncc2c2ccc(Nc3ccc(C#N)c(F)c3)nc21 [Example 17] | < 50% | +++ (tangles) |  |  | 
10 | Cn1c2ccncc2c2ccc(Nc3cnn(CCF)c3)nc21 [Example 40] |  | +++ (tangles) |  | 91% | 
11 | Cn1c2ccncc2c2ccc(Nc3cccc(OCCF)n3)nc21 [Example 44] |  | ++ (tangles) |  | 88% | Competition on AD brain section Aβ plaques (1 μM Compound B vs 250 μM compound) [4]: −21%; Selectivity (tau/Abeta) [3]: >88 fold
12 | Cn1c2ccncc2c2ccc(Nc3cnn(CCCCF)c3)nc21 [Example 45] |  |  | − | 39% | 
13 | Cn1c2ccncc2c2ccc(Nc3ccnn3CCF)nc21 [Example 46] |  |  | − | 55% | 
14 | Cn1c2ccncc2c2ccc(Nc3ccn(CCF)n3)nc21 [Example 47] |  | ++ (tangles) |  | 89% | 
15 | Cn1c2ccncc2c2ccc(Nc3cncc(OCCF)c3)nc21 [Example 59] |  | +++ (tangles) |  | 93%. | Competition on AD brain section Aβ plaques (1 μM Compound B vs 250 μM compound) [4]: −9%; Selectivity (tau/Abeta) [3]: >93 fold
16 | Cn1c2ccncc2c2ccc(Nc3cncc(OCCOCCF)c3)nc21 [Example 65] |  | ++ (tangles) |  |  | Competition on AD brain section Aβ plaques (1 μM Compound B vs 250 μM compound) [4]: 35%
17 | Cn1c2ccncc2c2ccc(Nc3cccc(NCCF)n3)nc21 [Example 78] |  | ++ (tangles) |  | 91% | 
18 | Cn1c2ccncc2c2ccc(Nc3cccc(OCCOCCF)c3)nc21 [Example 95] |  | ++ (tangles) |  |  | Competition on AD brain section Aβ plaques (1 μM Compound B vs 250 μM compound) [4]: 59%
19 | Cn1c2ccncc2c2ccc(Nc3cccc(OCCOCCOCCF)c3)nc21 [Example 96] |  | ++ (tangles) |  |  | Competition on AD brain section Aβ plaques (1 μM Compound B vs 250 μM compound) [4]: 18%
20 | Cn1c2ccncc2c2ccc(N3CCOC[C@H]3CF)nc21 [Example 150] |  |  |  | 18% | Competition on AD brain section Aβ plaques (1 μM Compound B vs 250 μM compound) [4]: 3%; Direct staining of tau tangles on AD brain sections (footnote a: at 250 μM) ([2]; 250 μM compound, tangles): + (tangles)^a
21 | Cn1c2ccncc2c2ccc(N3CCC(CCF)CC3)nc21 [Example 151] |  |  | − | 99% | Competition on AD brain section Aβ plaques (1 μM Compound B vs 250 μM compound) [4]: 42%; Selectivity (tau/Abeta) [3]: ~2.4-fold
22 | CN1CCc2c(c3ccc(Nc4ccc5c(c4)OCO5)nc3n2C)C1=O [Example 170] | < 50% |  | − | 20% | 
23 | COc1cc(Nc2ccc3c4c(n(C)c3n2)CCN(C)C4=O)ccc1C [Example 171] | < 50% |  | − |  | 
24 | CN1CCc2c(c3ccc(Nc4ccc5ncn(C)c5c4)nc3n2C)C1=O [Example 172] | < 50% |  | − | 16% | 
25 | Cn1c2c(c3ccc(Nc4ccc(F)c(F)c4)nc31)C(=O)NCC2 [Example 174] | < 50% |  | − |  | 
